From patent US5854010A, “Bioassay for detecting 2,3,7,8-tetrachlorodibenzo-para-dioxin and TCDD-like compounds and novel recombinant cell line useful therefor” (priority 1997, dated 1998)

How the values were obtained:
H4L1.1c4 cells = assay: TCDD-inducible luciferase activity, stably transfected clonal cell line; assay type: cell-based, rat; details: 24 h
Protocol: Using the stabilized luciferase assay system (purchased from Promega), luciferase activity in an aliquot of the cleared lysed cell supernatant (20 μl) was determined by mixing it with 100 µl of luciferase assay reagent (purchased from Promega) and measuring the resulting luminescence in a Turner Luminometer or Dynatech ML3000 microplate luminometer (light output was integrated over 1 minute after a delay time of 30 seconds).
Using a microplate adaptation of the method reported by Bradford in "A Rapid Sensitive Method for the Quantitation of Microgram Quantities of Protein Utilizing the Principle of Protein-Dye Binding", Anal. Biochem., […], pp. 248-254 (1976), luciferase activity was standardized to the protein concentration of the supernatant (with bovine serum albumin as the protein standard). Because of instrument differences in luminescence measurement and data output, luciferase activity was determined as relative light units (RLU) per microgram of protein, which was converted to milligram of protein as reported in the Tables below. […]
More particularly, isolated clones were grown until confluent, and then incubated in the absence or presence of TCDD (1 nM solubilized in DMSO) for 24 hours. After the incubation, luciferase activity was determined as described above.

H1L1.1 cells = assay: Dose response of luciferase induction, 24 h (FIGS. 3-6, Table 3); assay type: cell-based, mouse; details: for Induced luciferase activity, TCDD reference: 1 nM TCDD in DMSO
Protocol: The graph of FIG. 3 illustrates the dose dependence of luciferase induction in the mouse H1L1.1 cells measured following […] of the cells to increasing concentrations of TCDD or other toxic compounds (which others are discussed in more detail below).
More particularly, the stable cell clones for the mouse H1L1.1 cells (about 90% confluent) were plated into six-well microplates (purchased from Corning) and incubated for 24 hours with the indicated concentration of the particular toxin solubilized in DMSO. Then, the cells were lysed with 100 μl of lysis buffer and luciferase activity was determined as described above. Values represent the mean ± the standard evaluation of at least triplicate determinations.
As set out in Table 3, the responsiveness and sensitivity of the mouse H1L1.1 cells was compared to the responsiveness and sensitivity of certain other published PCDH cell bioassay systems. The other systems were a recombinant HepG2 (101L) cell line that induces firefly luciferase (see, Postlind et al., supra), a recombinant Hepa1 (T13) cell line that induces PAP activity (see El-Fouly et al., supra), and a rat H4IIE cell line that induces EROD activity (see, Kennedy et al., supra). The ED50 values were calculated by probit analysis of the dose-response data.
As set out in the graphs of FIGS. 3-6, since one use of the stably transfected mouse H1L1.1 cell lines is for detection and relative quantitative analysis of TCDD and various dioxin-like compounds (i.e., AhR ligands), the ability of various compounds besides TCDD to induce luciferase activity in the mouse H1L1.1 cells was examined. The experiments performed to determine the dose-response curves for the toxins other than TCDD set out in the graphs of FIGS. 3-6 were performed in essentially the same manner as the experiments described above to determine the dose response curve of TCDD set out in the graph of FIG. 3.
Specifically, with respect to the data illustrated in the graph of FIG. 3, cells were incubated with increasing concentrations of test chemical and luciferase activity determined after 24 hours.
It should be noted that the low numerical values of luciferase activity from induction by various PCBs reported in FIGS. 4 and 5, compared to the values reported in the other figures, are not due to actual low levels of luciferase induction, but to the fact that the detection of luminescence in these experiments was performed using a different instrument from that used in the other experiments.
However, the relative magnitude of luciferase induction by the mono-ortho-PCBs (FIG. 4) and the AROCLORS (FIG. 5) was established by directly comparing the resulting activity to that produced by a maximally inducing dose of TCDD (1 nM solubilized in DMSO) measured in the same instrument.

[1] = tested on: guinea pig G16L1.1c8 cells; assay: Antagonism of TCDD luciferase induction by 2,2',5,5'-TCB (FIG. 7); assay type: cell-based; details: TCDD 5 nM, 24 h
Protocol: (§1) The bar graph of FIG. 7 illustrates that 2,2',5,5'-TCB antagonizes induction of luciferase activity by TCDD in a species-specific manner, and thus, 2,2',5,5'-TCB is not a TCDD-like compound as defined herein. In particular, six-well plates containing the indicated cell lines were incubated with DMSO (control), with TCDD (5 nM), with 2,2',5,5'-TCB (25 μM), or with both TCDD (5 nM) and 2,2',5,5'-TCB (25 μM) for 24 hours. Luciferase activity in cell lysates was determined as described above. Values represent the mean ± the standard evaluation of at least triplicate determinations.

human HG2L1.1c3 cells = assay: as above; assay type: cell-based; details: TCDD 5 nM, 24 h
Protocol: as §1

mouse H1L1.1 cells = assay: as above; assay type: cell-based; details: TCDD 5 nM, 24 h
Protocol: as §1

rat H4L1.1c4 cells = assay: as above; assay type: cell-based; details: TCDD 5 nM, 24 h
Protocol: as §1

[2] = tested on: Rat H4IIE cells, CYP1A1/EROD; details: Table 3 comparison, Kennedy et al., cited from earlier work
[3] = tested on: Human 101L cells (recombinant HepG2), luciferase; details: Table 3 comparison, Postlind et al.; read-out: ED50 (the source's name); cited from earlier work

## Clc1cc2c(cc1Cl)Oc1cc(Cl)c(Cl)cc1O2 [TCDD, 2,3,7,8-tetrachlorodibenzo-para-dioxin]
H4L1.1c4 cells; Rattus norvegicus, TCDD 1 nM vs DMSO
  fold induction: 25
H4L1.1c4 cells; TCDD 1 nM, mean ± SD of triplicate assays
  Luciferase activity, TCDD in DMSO: 0.49 ± 0.03 RLU/mg protein
H1L1.1 cells; instrument of FIG. 4
  Induced luciferase activity, TCDD reference: 2.25±0.6
H1L1.1 cells; instrument of FIG. 5
  Induced luciferase activity, TCDD reference: 0.95±0.07
H1L1.1 cells; Mus musculus, 24 h, FIG. 3
  EC50: ~0.02 nM
H1L1.1 cells; Mus musculus, by 1.0 nM TCDD, 24 h, FIG. 3, read-out: Maximal induction of luciferase activity
  fold induction at 0.001 µM: 80
H1L1.1 cells; TCDD, 24 h, FIG. 3
  Dose dependence of luciferase induction: dose dependent
[1]
  Luciferase induction by TCDD alone: induced luciferase activity
Human HG2L1.1c3 cells
  Luciferase induction by TCDD alone: induced luciferase activity
Mouse H1L1.1 cells
  Luciferase induction by TCDD alone: induced luciferase activity
Rat H4L1.1c4 cells
  Luciferase induction by TCDD alone: induced luciferase activity
[2]
  MDL (minimal detection level): 10 pM
[2]; read-out: ED50 (the source's name)
  EC50: 0.1 nM
[3]
  EC50: 0.35 nM
